According to article PMC4685510, “A Cell Biologist’s Field Guide to Aurora Kinase Inhibitors” (Frontiers in Oncology, 2015):

Columns and labels:
Test in all cases: biochemical
Format in all cases: biochemical
[1] = target: 363 human kinases (including Aurora A/B/C) (Homo sapiens, UniProt O60674); settings: JAK2; for remaining activity at 0.1 µM: 100 nM; for remaining activity at 0.1 µM / remaining activity at 0.5 µM: read-out: % Enzyme Activity (relative to DMSO controls)
Source text: (§1) However, the Aurora A/B selectivity ratios derived from our in vitro and in vivo data can be compared to prioritize inhibitors.

[2] = target: T1, 363 human kinases (including Aurora A/B/C) (Homo sapiens, UniProt Q15139); settings: PKCmu/PRKD1; for remaining activity at 0.1 µM: 100 nM; for remaining activity at 0.1 µM / remaining activity at 0.5 µM: read-out: % Enzyme Activity (relative to DMSO controls)
T1 sequence (Q15139 1-912): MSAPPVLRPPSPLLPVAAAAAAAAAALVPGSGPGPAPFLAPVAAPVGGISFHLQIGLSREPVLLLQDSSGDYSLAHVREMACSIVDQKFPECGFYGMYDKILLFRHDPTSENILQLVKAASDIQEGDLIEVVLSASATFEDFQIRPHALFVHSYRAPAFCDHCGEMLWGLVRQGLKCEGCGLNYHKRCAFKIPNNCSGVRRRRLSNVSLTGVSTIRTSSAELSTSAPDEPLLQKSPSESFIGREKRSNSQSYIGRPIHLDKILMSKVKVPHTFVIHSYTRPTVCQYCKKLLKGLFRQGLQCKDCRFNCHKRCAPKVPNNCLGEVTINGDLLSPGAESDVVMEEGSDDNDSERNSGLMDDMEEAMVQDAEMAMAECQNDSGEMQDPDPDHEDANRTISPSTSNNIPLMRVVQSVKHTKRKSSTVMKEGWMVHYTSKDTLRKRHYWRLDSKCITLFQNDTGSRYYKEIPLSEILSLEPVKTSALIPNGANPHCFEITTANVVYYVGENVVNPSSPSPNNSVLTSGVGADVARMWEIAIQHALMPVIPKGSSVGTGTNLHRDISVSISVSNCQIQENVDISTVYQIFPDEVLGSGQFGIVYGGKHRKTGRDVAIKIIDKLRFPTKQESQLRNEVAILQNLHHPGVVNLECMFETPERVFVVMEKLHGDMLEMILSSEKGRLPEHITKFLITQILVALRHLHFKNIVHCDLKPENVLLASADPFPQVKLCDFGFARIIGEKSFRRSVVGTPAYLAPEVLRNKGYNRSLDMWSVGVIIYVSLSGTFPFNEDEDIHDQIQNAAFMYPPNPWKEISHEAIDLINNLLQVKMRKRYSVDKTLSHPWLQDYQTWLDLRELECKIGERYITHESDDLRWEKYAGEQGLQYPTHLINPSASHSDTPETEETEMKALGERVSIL
Source text: as §1

[3] = target: T2, 363 human kinases (including Aurora A/B/C) (Homo sapiens, UniProt Q12866); settings: c-MER, [ATP] 30 µM; for remaining activity at 0.1 µM: 100 nM; for remaining activity at 0.1 µM / remaining activity at 0.5 µM: read-out: % Enzyme Activity (relative to DMSO controls)
T2 sequence (Q12866 21-999): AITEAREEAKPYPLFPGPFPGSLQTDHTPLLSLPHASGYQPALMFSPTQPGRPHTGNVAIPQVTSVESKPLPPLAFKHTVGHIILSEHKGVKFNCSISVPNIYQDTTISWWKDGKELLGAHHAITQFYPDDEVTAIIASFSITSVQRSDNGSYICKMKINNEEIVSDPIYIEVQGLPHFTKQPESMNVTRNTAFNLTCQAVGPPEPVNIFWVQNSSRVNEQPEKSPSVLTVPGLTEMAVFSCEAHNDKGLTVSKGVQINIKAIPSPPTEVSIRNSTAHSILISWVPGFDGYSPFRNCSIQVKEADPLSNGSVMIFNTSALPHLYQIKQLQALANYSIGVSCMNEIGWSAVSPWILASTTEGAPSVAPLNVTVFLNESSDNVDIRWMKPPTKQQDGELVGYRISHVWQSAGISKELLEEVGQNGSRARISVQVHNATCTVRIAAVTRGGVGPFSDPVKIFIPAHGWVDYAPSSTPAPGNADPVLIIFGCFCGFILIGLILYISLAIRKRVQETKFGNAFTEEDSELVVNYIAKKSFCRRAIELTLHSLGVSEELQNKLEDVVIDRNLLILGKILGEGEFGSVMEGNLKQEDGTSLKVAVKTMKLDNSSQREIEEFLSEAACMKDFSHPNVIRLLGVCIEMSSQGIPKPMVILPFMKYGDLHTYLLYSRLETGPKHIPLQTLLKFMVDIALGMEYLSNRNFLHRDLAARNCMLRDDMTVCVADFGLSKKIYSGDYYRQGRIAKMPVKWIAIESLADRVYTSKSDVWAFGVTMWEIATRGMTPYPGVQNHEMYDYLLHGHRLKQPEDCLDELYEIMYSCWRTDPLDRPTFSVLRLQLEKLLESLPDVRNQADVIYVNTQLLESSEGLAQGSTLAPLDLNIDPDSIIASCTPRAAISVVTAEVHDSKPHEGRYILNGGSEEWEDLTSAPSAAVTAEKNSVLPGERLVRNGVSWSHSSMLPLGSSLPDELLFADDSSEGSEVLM
Source text: as §1

[4] = target: T3, 363 human kinases (including Aurora A/B/C) (Homo sapiens, UniProt P25098); settings: GRK2; for remaining activity at 0.1 µM: 100 nM; for remaining activity at 0.1 µM / remaining activity at 0.5 µM: read-out: % Enzyme Activity (relative to DMSO controls)
T3 sequence (P25098 1-689): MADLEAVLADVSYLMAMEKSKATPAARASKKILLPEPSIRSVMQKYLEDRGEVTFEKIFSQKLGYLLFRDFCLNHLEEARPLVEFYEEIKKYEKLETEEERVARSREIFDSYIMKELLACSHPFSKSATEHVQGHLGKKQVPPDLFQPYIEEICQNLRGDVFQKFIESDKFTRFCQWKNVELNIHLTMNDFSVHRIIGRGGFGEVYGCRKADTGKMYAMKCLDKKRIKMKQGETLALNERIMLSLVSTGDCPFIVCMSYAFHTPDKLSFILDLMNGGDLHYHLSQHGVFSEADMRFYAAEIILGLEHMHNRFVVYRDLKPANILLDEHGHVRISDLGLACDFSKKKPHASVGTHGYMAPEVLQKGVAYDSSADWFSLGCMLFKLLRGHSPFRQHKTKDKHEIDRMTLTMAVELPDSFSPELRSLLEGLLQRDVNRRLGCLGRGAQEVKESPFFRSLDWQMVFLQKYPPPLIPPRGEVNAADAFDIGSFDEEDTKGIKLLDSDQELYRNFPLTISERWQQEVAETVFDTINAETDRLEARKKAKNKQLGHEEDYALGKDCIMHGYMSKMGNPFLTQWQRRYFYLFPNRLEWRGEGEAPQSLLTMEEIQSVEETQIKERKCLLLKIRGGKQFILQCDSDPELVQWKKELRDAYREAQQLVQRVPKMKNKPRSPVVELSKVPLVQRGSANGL
Source text: as §1

363 human kinases (including Aurora A/B/C) (Homo sapiens, UniProt O60674), sequence (O60674 whole entry): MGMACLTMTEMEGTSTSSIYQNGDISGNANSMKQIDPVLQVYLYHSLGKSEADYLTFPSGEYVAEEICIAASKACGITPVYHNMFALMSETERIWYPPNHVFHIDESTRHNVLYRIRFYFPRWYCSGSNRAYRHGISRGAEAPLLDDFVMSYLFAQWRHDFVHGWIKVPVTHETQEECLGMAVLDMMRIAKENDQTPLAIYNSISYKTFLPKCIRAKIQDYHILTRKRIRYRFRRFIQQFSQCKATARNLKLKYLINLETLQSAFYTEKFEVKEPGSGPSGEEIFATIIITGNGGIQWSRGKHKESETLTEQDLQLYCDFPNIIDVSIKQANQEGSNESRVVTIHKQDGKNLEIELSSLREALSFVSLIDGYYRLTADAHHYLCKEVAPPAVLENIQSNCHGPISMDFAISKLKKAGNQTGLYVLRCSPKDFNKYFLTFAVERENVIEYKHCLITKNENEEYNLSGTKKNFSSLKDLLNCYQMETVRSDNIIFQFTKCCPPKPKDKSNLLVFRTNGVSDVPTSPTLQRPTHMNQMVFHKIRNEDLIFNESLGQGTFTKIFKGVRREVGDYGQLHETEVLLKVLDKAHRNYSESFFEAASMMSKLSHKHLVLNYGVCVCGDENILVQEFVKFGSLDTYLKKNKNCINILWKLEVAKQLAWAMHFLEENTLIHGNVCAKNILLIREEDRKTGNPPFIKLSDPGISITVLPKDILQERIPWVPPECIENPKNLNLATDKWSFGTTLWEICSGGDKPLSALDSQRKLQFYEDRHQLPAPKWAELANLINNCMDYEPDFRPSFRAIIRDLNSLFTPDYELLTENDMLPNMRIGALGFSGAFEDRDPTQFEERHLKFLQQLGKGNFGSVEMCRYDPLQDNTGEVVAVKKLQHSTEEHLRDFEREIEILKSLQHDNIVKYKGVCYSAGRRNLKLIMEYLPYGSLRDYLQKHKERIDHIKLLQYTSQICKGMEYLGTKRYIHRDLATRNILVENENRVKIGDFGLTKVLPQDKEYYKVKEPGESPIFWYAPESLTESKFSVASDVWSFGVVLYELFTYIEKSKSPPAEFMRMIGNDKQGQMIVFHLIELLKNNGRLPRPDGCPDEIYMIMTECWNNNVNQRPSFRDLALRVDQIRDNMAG

| Structure (SMILES) | remaining activity at 0.1 µM [1] | remaining activity at 0.1 µM [2] | remaining activity at 0.1 µM [3] | remaining activity at 0.1 µM [4] | remaining activity at 0.5 µM ([1]; 500 nM) | remaining activity at 0.5 µM ([2]; 500 nM) | remaining activity at 0.5 µM ([3]; 500 nM) | remaining activity at 0.5 µM ([4]; 500 nM) | % Enzyme Activity (relative to DMSO controls) ([1]; 500 nM) | % Enzyme Activity (relative to DMSO controls) ([2]; 500 nM) | % Enzyme Activity (relative to DMSO controls) ([3]; 500 nM) | % Enzyme Activity (relative to DMSO controls) ([4]; 500 nM) |
| --- | --- | --- | --- | --- | --- | --- | --- | --- | --- | --- | --- | --- |
| CCn1cc(-c2ccnc3[nH]c(-c4cccc(CN(C)C)c4)cc23)c(-c2ccc(NC(=O)N(C)C)cc2)n1 [GSK1070916] | 104% | 85.4% | 81.6% | 101% |  |  |  |  |  |  |  |  |
| O=C(O)[C@]1(Cc2cccc(Nc3nccs3)n2)CC[C@@H](Oc2cccc(Cl)c2F)CC1 [MK-5108] | 31.1% | 108% | 78.7% | 102% | 7.8% | 99% | 46.1% | 106% |  |  |  |  |
| O=C(c1cccc(Cl)c1F)N1CCN(Cc2cccc(Nc3nccs3)n2)CC1 [MK-8745] |  |  |  |  | 65.6% | 98.5% | 41.6% | 105% | 62.84% | 97.14% | 41.19% | 103.92% |
